Measured values taken from patent publication US20240252463A1, “METHODS OF TREATING FIBROTIC PATHOLOGIES” (Mayo Foundation for Medical Education and Research, priority 2018, published 2024).
Where a name gives a salt, the structure may show the parent alone. Read-outs that look alike come from different tables or passages of the source.

Assays:
YAP/TAZ = YAP/TAZ nuclear localization (immunofluorescence, automated imaging) in IPF patient-derived lung fibroblasts; format: cell-based, human
Experimental: 27A. […] IPF patient-derived lung fibroblasts cells treated 2 hours prior to fixation with diverse dopaminergic agonists (10 μM). N=4 different patient samples. % nuclear localization of YAP/TAZ was determined using automated imaging software. Scale bar represents 100 μm. 27C. cAMP measured in IPF patient-derived fibroblasts treated for 20 minutes with DHX. N=3. 27E.
(§1) ImmunofluorescenceMicroscopy: Cells were plated into 96 well plates (Corning 3603) in their specific growth media and allowed to attach (8 hours). Media was then exchanged for the indicated conditions for each experiment. Cells were fixed in 3.7% formalin (Sigma-Aldrich), permeabilized in 0.25% Triton X-100 (Sigma-Aldrich) and then blocked with 1% BSA for 1 h. Cells or tissue sections were incubated overnight with mouse monoclonal antibody against αSMA (Sigma-Aldrich F3777), and/or a rabbit monoclonal antibody against YAP/TAZ (Cell Signaling D24E4) diluted 1:200 in PBS with 1% BSA. Cells were then washed and exposed to flourescence-conjugated secondary antibodies (Invitrogen) diluted 1:1000 and DAPI (Thermo Fisher Scientific). Images were taken with a Cytation5 (BioTek) microscope. For scoring αSMA positive cells (FIG. 3b), an observer blinded to the treatment conditions counted αSMA-positive cells using a visual threshold for bright fibrous staining; a minimum of 200 cells was counted for each condition. YAP/TAZ localization was quantified (FIG. 2, 6, 8) using Gen5 (Biotek) software. Images were taken at 4× magnification of both DAPI and YAP/TAZ staining. […] Quantification of double positive (YAP/TAZ and αSMA) cells from lung tissue sections (FIG. 4d) was performed similarly; however separate thresholds were established for both YAP/TAZ and αSMA. A minimum of 4000 cells was quantified for each mouse.

αSMA = αSMA intensity (fibroblast activation) in IPF patient-derived lung fibroblasts + TGFβ; format: cell-based, human; conditions: Homo sapiens, SMA, 1 μM + TGFβ, treated for 72 hours
Experimental: as §1

human dermal fibroblasts = assay: Profibrotic gene expression in human dermal fibroblasts +/- TGFβ; format: cell-based; conditions: 24 hours +/− 2 ng/mL TGFβ
Experimental: Human dermal fibroblasts treated for 24 hours+/−2 ng/mL TGFβ and D1 agonists: DHX and A68930 prior to RNA isolation. N=2. For all other in vitro experiments, cells were treated as indicated prior to RNA isolation using RNeasy Plus Mini Kit (Qiagen) according to manufacturer's instructions. Isolated RNA (250 ng) was then used to synthesize cDNA using SuperScript VILO (Invitrogen). Quantitative PCR was performed using FastStart Essential DNA Green Master (Roche) and analyzed using a LightCycler 96 (Roche). Data are expressed as a fold change by ΔΔCt relative to GAPDH. For in vivo experiments, tissue was immediately frozen, and stored at −80° C. RNA isolation, cDNA synthesis, and qPCR analysis were performed as above.

[1] = tested on: IPF patient derived fibroblasts; assay: Traction Force Microscopy of IPF patient derived fibroblasts; format: cell-based, human; conditions: IPF fibroblasts on 6.4 kPa matrices
Experimental: Traction Force Microscopy: Traction analysis was conducted as previously described. Briefly, polyacrylamide substrates with shear moduli of 6.4 kPa were prepared, and fluorescent sulfate-modified latex microspheres (0.2 μm, 505/515 ex/em) (FluoSpheres, Life Technologies) were conjugated to the gel surfaces after treatment with 1 mg ml^−1 of dopamine hydrochloride (Sigma-Aldrich) in 50 mM HEPES solution (pH 8.5). IPF patient derived fibroblasts were plated on the gels overnight and treated as indicated before traction force measurements. Images of gel surface-conjugated fluorescent beads were acquired for each cell before and after trypsinization using a Nikon ECLIPSE Ti microscope at ×10 magnification. Traction forces were estimated by measuring bead displacement fields and computing corresponding traction fields using TractionsForAll (freely distributed program that calculates 2-D tractions exerted by an adherent cell on its substrate).

αSMA+ stress fibers = assay: TGFβ-induced αSMA+ stress fiber formation; format: cell-based, human; conditions: TGFβ 48 hours, then dopamine 1 μM + TGFβ 24 hours
Experimental: ImmunofluorescenceMicroscopy: Cells were plated into 96 well plates (Corning 3603) in their specific growth media and allowed to attach (8 hours). Media was then exchanged for the indicated conditions for each experiment. Cells were fixed in 3.7% formalin (Sigma-Aldrich), permeabilized in 0.25% Triton X-100 (Sigma-Aldrich) and then blocked with 1% BSA for 1 h. Cells or tissue sections were incubated overnight with mouse monoclonal antibody against αSMA (Sigma-Aldrich F3777), and/or a rabbit monoclonal antibody against YAP/TAZ (Cell Signaling D24E4) diluted 1:200 in PBS with 1% BSA.

cAMP = cAMP Assay (cAMP-Glo) in lung fibroblasts; format: cell-based, human; conditions: IMR-90 lung fibroblasts (FIG. 31F-31H)
Experimental: cAMP Assay: IPF patient derived fibroblasts were plated in EMEM containing 10% FBS overnight. […] 20 minutes prior to cell lysis media was removed and cells were treated with “induction buffer” containing nonselective phosphodiesterase inhibitors and the indicated concentration of compound(s). Luminescence was measured on a Flexstation 3 (Molecular Devices) plate reader.

[2] = tested on: YAP/TAZ-TEAD interactions; conditions: Ref. 19; cited from earlier work
[3] = patient sample IPF-1, read-out: αSMA intensity (% of DMSO control) IPF-1
[4] = patient sample IPF-2, read-out: αSMA intensity (% of DMSO control) IPF-2
[5] = patient sample IPF-3, read-out: αSMA intensity (% of DMSO control) IPF-3
[6] = patient sample IPF-4, read-out: αSMA intensity (% of DMSO control) IPF-4

Molecule | activity at 1 µM (αSMA; [3]) [%] | activity at 1 µM (αSMA; [4]) [%] | activity at 1 µM (αSMA; [5]) [%] | activity at 1 µM (αSMA; [6]) [%] | antagonism of DHX's elevation of cAMP, inhibition of YAP/TAZ nuclear localization and of YAP/TAZ target genes (cAMP) | other results
NCC1OC(c2ccccc2)Cc2c1ccc(O)c2O (stereo not shown) [A 68930•HCl] | 12.4 | 8.11 | 3.25 | 7.35 |  | Nuclear localization (% of total cells) IPF-1 (YAP/TAZ; patient sample IPF-1, 10 μM, treated 2 hours prior to fixation): 33.13 % of total cells; Nuclear localization (% of total cells) IPF-2 (YAP/TAZ; patient sample IPF-2, 10 μM, treated 2 hours prior to fixation): 30.59 % of total cells; Nuclear localization (% of total cells) IPF-3 (YAP/TAZ; patient sample IPF-3, 10 μM, treated 2 hours prior to fixation): 26.82 % of total cells; Nuclear localization (% of total cells) IPF-4 (YAP/TAZ; patient sample IPF-4, 10 μM, treated 2 hours prior to fixation): 10.26 % of total cells; profibrotic gene expression in human dermal fibroblasts (human dermal fibroblasts): blocks profibrotic gene expression
NCCc1ccc(O)c(O)c1 [Dopamine•HCl, Dopamine] | 35.2 | 8.09 | 26.6 | 5.37 |  | YAP/TAZ nuclear localization, low density IPF fibroblasts (YAP/TAZ; tissue culture plastic (FIG. 34A)): inhibits YAP/TAZ nuclear localization; contractile forces (traction force microscopy) [1]: attenuates IPF fibroblast contractility; αSMA+ stress fiber formation in IPF-patient derived fibroblasts (αSMA+ stress fibers): reverses αSMA+ stress fiber formation
CN1CCc2ccccc2Cc2[nH]c3ccccc3c2CC1 [LE-300] |  |  |  |  | block DHX's elevation of cAMP | 
CN1CCc2cc(Cl)c(O)cc2[C@H]2c3ccccc3CC[C@@H]21 [SCH-39166] |  |  |  |  | block DHX's elevation of cAMP | 
verteporfin |  |  |  |  |  | effects in models of liver fibrosis [2]: limited beneficial effects
